Data as given in patent publication US9249163B2, “PDE10a inhibitors for the treatment of type II diabetes” (Janssen Pharmaceutica, NV, priority 2013, dated 2016).
Where a name gives a salt, the structure may show the parent alone.

Legend:
[1] = PDE10a-perfused brain permeability study (plasma and brain concentrations); details: male, Sprague-Dawley, rat; for Kp at 2 h: brain/plasma
Description: Drug administration by oral gavage, subcutaneous injection or intravenous was carried out using male Sprague Dawley rats under IACUC protocol (SH-MET3010). Male Sprague Dawley rats (Charles River) ˜300-350 g were maintained on a 4% standard rodent diet (Test Diet 5001). They are allowed ad libitum access to water and food. Room temperature was maintained at 64° F. and humidity at 30-70%.
Three animals per compound were provided a dose of 2 mg/mL in 20% HpbCD/Tris pH 8 by tail i.v. or 30 mpk p.o. or s.c. in 20% HpbCD/Tris pH 8, with PDE10a antagonists. A first blood sample was collected at 30 min via retro-orbital sinus (anesthetic by 70% CO2/30% O2) into heparinzed plasma separator tubes. The blood was centrifuged and 100 uL plasma was placed into a 96 well plate and saved on dry ice.
After the 120 min, the final blood sample was collected via retro-orbital sinus under anesthesia by IP 0.5 cc injection of a 4/1 mixture of Ketaset: AnaSed [(prepared 10 mL Ketaset (100 mg/mL Ketamine)+2.5 mL AnaSed (20 mg/mL Xylazine)]. The rats were then perfused with 400 mL heparinized saline (10,000 units/L) through the left ventricle of the heart; the brains were then removed (not including the medulla), weighed and homogenized in PBS (4 mL/g tissue). The samples were stored at −80° C. and submitted for chemical analysis of blood and brain concentrations. Endpoints of sample analysis consists of the plasma concentrations at 30 and 120 min, plus brain concentrations at 120 min.

[2] = target: Rat recombinant PDE10a (rPDE10a) (Rattus norvegicus (Rat), UniProt Q9QYJ6); experiment: In vitro assay PDE10a (rat recombinant PDE10a, SPA); type: biochemical; details: 60 nM cAMP, 60 min at rt, read-out: rPDE10a2 IC50
Procedure, shortened: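 Rat PDE10a expressed in Sf9 cells (baculovirus) and Ni-sepharose purified. Incubated with compound for 60 min at rt in 50 mM Tris pH 7.8, 8.3 mM MgCl2, 1.7 mM EGTA with 60 nM cAMP plus 0.008 μCi ^3H-cAMP (final), 1% DMSO. Read-out by PDE SPA bead scintillation counting (cpm), no-enzyme blank.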

[3] = target: Human recombinant PDE10A2 (Homo sapiens (Human), UniProt Q9Y233); experiment: In vitro hPDE10a (human recombinant PDE10A2, scintillation proximity assay); type: biochemical; details: human recombinant PDE10A2, 60 nM cAMP, 60 min at room temperature; read-out: hPDE10a2 IC50
Chain of Human recombinant PDE10A2 (Q9Y233 267-1055): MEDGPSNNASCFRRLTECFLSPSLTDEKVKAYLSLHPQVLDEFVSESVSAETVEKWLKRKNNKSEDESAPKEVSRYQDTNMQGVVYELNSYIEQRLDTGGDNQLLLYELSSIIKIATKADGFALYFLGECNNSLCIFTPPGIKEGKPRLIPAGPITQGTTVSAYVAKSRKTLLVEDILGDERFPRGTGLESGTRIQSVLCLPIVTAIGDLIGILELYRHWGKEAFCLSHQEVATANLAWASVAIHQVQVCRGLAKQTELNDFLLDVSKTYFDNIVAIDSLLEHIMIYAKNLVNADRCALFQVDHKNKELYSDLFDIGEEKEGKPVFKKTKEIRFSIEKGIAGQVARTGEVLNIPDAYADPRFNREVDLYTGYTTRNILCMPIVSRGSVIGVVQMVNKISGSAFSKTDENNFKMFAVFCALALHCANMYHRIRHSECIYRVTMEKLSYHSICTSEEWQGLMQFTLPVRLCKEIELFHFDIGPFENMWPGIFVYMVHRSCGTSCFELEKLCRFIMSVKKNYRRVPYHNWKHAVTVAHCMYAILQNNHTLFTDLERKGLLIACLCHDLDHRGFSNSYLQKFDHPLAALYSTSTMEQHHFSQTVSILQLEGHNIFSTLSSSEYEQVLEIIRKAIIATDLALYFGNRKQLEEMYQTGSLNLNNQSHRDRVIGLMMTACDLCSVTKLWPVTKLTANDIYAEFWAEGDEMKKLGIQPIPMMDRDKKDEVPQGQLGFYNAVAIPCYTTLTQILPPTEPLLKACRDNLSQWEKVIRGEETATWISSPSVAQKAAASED

Chain of Rat recombinant PDE10a (rPDE10a) (Q9QYJ6 whole entry): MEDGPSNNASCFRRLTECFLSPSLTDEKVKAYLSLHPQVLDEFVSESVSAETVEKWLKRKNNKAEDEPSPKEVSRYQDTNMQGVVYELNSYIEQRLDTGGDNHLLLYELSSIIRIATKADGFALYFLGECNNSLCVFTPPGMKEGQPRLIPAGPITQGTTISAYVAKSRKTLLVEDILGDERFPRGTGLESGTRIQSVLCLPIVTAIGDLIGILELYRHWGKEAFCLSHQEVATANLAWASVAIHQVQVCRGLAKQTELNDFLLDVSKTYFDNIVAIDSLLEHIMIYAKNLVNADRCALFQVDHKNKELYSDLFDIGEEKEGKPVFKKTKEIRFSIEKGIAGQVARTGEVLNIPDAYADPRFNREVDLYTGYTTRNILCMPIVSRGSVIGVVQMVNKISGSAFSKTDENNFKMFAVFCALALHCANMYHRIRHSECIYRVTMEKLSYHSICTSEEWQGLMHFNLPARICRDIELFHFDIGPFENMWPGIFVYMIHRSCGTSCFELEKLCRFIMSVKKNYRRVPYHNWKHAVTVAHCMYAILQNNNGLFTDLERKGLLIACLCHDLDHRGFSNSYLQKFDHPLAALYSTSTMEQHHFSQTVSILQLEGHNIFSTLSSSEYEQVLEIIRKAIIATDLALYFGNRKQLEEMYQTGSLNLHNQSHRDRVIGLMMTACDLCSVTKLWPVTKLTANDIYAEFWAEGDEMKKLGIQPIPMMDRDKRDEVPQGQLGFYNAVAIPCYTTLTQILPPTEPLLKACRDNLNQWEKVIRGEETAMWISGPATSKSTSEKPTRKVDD

O=C(O)c1ccc(-c2cnc(N3CCOCC3)c3nc(/C=C/c4ccc5ccccc5n4)cn23)cc1 [Cpd 16, (E)-4-(8-morpholino-2-(2-(quinolin-2-yl)vinyl)imidazo[1,2-a]pyrazin-5-yl)benzoic acid trifluoroacetic acid salt]
concentration at 2 h ([1]; brain): 0 ng/g
Kp at 2 h [1]: 0
concentration at 2 h ([1]; plasma): 142 ng/mL

O=c1[nH]nnn1-c1ccc(-c2cnc(N3CCOCC3)c3nc(/C=C/c4ccc5ccccc5n4)cn23)cc1 [Cpd 55, (E)-1-(4-(8-Morpholino-2-(2-(quinolin-2-yl)vinyl)imidazo[1,2-a]pyrazin-5-yl)phenyl)-1H-tetrazol-5(4H)-one]
concentration at 2 h ([1]; brain): 0 ng/g
Kp at 2 h [1]: 0
concentration at 2 h ([1]; plasma): 118 ng/mL

CC(=O)NS(=O)(=O)c1ccc(-c2cnc(N3CCOCC3)c3nc(CCc4ccc5ccccc5n4)cn23)cc1 [Cpd 63, N-((4-(8-Morpholino-2-(2-(quinolin-2-yl)ethyl)imidazo[1,2-a]pyrazin-5-yl)phenyl)sulfonyl)acetamide]
IC50 [2]: < 1 nM
concentration at 2 h ([1]; brain): 0 ng/g
Kp at 2 h [1]: 0
concentration at 2 h ([1]; plasma): 2 ng/mL

c1ccc2nc(SCc3cn4c(-c5ccc(N6CCNCC6)nc5)cnc(N5CCOCC5)c4n3)ccc2c1 [Cpd 98, 4-(5-(6-(piperazin-1-yl)pyridin-3-yl)-2-((quinolin-2-ylthio)methyl)imidazo[1,2-a]pyrazin-8-yl)morpholine trifluoroacetic acid salt]
IC50 [2]: 52 nM
IC50 [3]: 58 nM

c1ccc2nc(N3CC(c4cn5c(-c6ccc(N7CCNCC7)nc6)cnc(N6CCOCC6)c5n4)C3)ccc2c1 [Cpd 99, 4-(5-(6-(piperazin-1-yl)pyridin-3-yl)-2-(1-(quinolin-2-yl)azetidin-3-yl)imidazo[1,2-a]pyrazin-8-yl)morpholine]
IC50 [2]: 204 nM
IC50 [3]: 224 nM

c1ccc2nc(OCc3cn4c(-c5ccc(Sc6nnc[nH]6)nc5)cnc(N5CCOCC5)c4n3)ccc2c1 [Cpd 100, 4-(5-(6-((4H-1,2,4-triazol-3-yl)thio)pyridin-3-yl)-2-((quinolin-2-yloxy)methyl)imidazo[1,2-a]pyrazin-8-yl)morpholine]
IC50 [2]: 38 nM
IC50 [3]: 29 nM

O=C(O)Cc1ccc(-c2cnc(N3CCOCC3)c3nc(COc4ccc5ccccc5n4)cn23)cn1 [Cpd 101, 2-(5-(8-Morpholino-2-((quinolin-2-yloxy)methyl)imidazo[1,2-a]pyrazin-5-yl)pyridin-2-yl)acetic acid]
IC50 [2]: 20 nM
IC50 [3]: 15 nM

c1ccc2nc(CCc3cn4c(-c5ccc(N6CCNCC6)nc5)cnc(N5CCOCC5)c4n3)ccc2c1 [Cpd 102, 4-(5-(6-(piperazin-1-yl)pyridin-3-yl)-2-(2-(quinolin-2-yl)ethyl)imidazo[1,2-a]pyrazin-8-yl)morpholine trifluoroacetic acid salt]
IC50 [2]: 17 nM
IC50 [3]: 35 nM

C(=C\c1ncccn1)/c1cn2c(-c3ccc(N4CCNCC4)nc3)cnc(N3CCOCC3)c2n1 [Cpd 103, (E)-4-(5-(6-(Piperazin-1-yl)pyridin-3-yl)-2-(2-(pyrimidin-2-yl)vinyl)imidazo[1,2-a]pyrazin-8-yl)morpholine]
IC50 [2]: 617 nM
IC50 [3]: 676 nM

C(=C\c1ncc2ccccc2n1)/c1cn2c(-c3ccc(N4CCNCC4)nc3)cnc(N3CCOCC3)c2n1 [Cpd 104, (E)-4-(5-(6-(Piperazin-1-yl)pyridin-3-yl)-2-(2-(quinazolin-2-yl)vinyl)imidazo[1,2-a]pyrazin-8-yl)morpholine]
IC50 [2]: 68 nM
IC50 [3]: 129 nM

C(=C\c1cn2c(-c3ccc(N4CCNCC4)nc3)cnc(N3CCOCC3)c2n1)/c1ccc2ccccc2n1 [Cpd 105, (E)-4-(5-(6-(piperazin-1-yl)pyridin-3-yl)-2-(2-(quinolin-2-yl)vinyl)imidazo[1,2-a]pyrazin-8-yl)morpholine trifluoroacetic acid salt]
IC50 [2]: 22 nM
IC50 [3]: 50 nM

c1ccc2nc(OCc3cn4c(-c5ccc(C6CCNCC6)nc5)cnc(N5CCOCC5)c4n3)ccc2c1 [Cpd 106, 4-(5-(6-(Piperidin-4-yl)pyridin-3-yl)-2-((quinolin-2-yloxy)methyl)imidazo[1,2-a]pyrazin-8-yl)morpholine trifluoroacetic acid salt]
IC50 [2]: 15 nM
IC50 [3]: 89 nM

C1=C(c2ccc(-c3cnc(N4CCOCC4)c4nc(COc5ccc6ccccc6n5)cn34)cn2)CCNC1 [Cpd 108, 4-(2-((quinolin-2-yloxy)methyl)-5-(1′,2′,3′,6′-tetrahydro-[2,4′-bipyridin]-5-yl)imidazo[1,2-a]pyrazin-8-yl)morpholine methane sulfonic acid salt]
IC50 [2]: 23 nM
IC50 [3]: 35 nM

COC1CCN(c2ncc(-c3ccc(N4CCNCC4)nc3)n3cc(COc4ccc5ccccc5n4)nc23)CC1 [Cpd 112, 2-((8-(4-Methoxypiperidin-1-yl)-5-(6-(piperazin-1-yl)pyridin-3-yl)imidazo[1,2-a]pyrazin-2-yl)methoxy)quinoline trifluoroacetic acid salt]
IC50 [2]: 95 nM
IC50 [3]: 89 nM

CC(=O)N1CCN(c2ncc(-c3ccc(N4CCNCC4)nc3)n3cc(COc4ccc5ccccc5n4)nc23)CC1 [Cpd 113]
IC50 [2]: 151 nM
IC50 [3]: 224 nM

c1ccc2nc(C3CN(c4cn5c(-c6ccc(N7CCNCC7)nc6)cnc(N6CCOCC6)c5n4)C3)ccc2c1 [Cpd 114, 4-(5-(6-(piperazin-1-yl)pyridin-3-yl)-2-(3-(quinolin-2-yl)azetidin-1-yl)imidazo[1,2-a]pyrazin-8-yl)morpholine trifluoroacetic acid salt]
IC50 [2]: 2000 nM
IC50 [3]: 1350 nM

O=C1CN(c2ncc(-c3ccc(N4CCNCC4)nc3)n3cc(COc4ccc5ccccc5n4)nc23)CCN1 [Cpd 115, 4-(5-(6-(piperazin-1-yl)pyridin-3-yl)-2-((quinolin-2-yloxy)methyl)imidazo[1,2-a]pyrazin-8-yl)piperazin-2-one trifluoroacetic acid salt]
IC50 [2]: 40 nM
IC50 [3]: 85 nM

c1cnc(OCc2cn3c(-c4ccc(N5CCNCC5)nc4)cnc(N4CCOCC4)c3n2)nc1 [Cpd 116, 4-(5-(6-(piperazin-1-yl)pyridin-3-yl)-2-((pyrimidin-2-yloxy)methyl)imidazo[1,2-a]pyrazin-8-yl)morpholine trifluoroacetic acid salt]
IC50 [2]: 3630 nM
IC50 [3]: 2630 nM

O=S1(=O)CCN(c2ncc(-c3ccc(N4CCNCC4)nc3)n3cc(COc4ccc5ccccc5n4)nc23)CC1 [Cpd 117, 4-(5-(6-(Piperazin-1-yl)pyridin-3-yl)-2-((quinolin-2-yloxy)methyl)imidazo[1,2-a]pyrazin-8-yl)thiomorpholine 1,1-dioxide trifluoroacetic acid salt]
IC50 [2]: 32 nM
IC50 [3]: 56 nM

OC1CCN(c2ncc(-c3ccc(N4CCNCC4)nc3)n3cc(COc4ccc5ccccc5n4)nc23)CC1 [Cpd 118, 1-(5-(6-(Piperazin-1-yl)pyridin-3-yl)-2-((quinolin-2-yloxy)methyl)imidazo[1,2-a]pyrazin-8-yl)piperidin-4-ol trifluoroacetic acid salt]
IC50 [2]: 30 nM
IC50 [3]: 78 nM

c1ccc2nc(OCc3cn4c(-c5ccc(N6CCNCC6)nc5)cnc(-c5ccncc5)c4n3)ccc2c1 [Cpd 120, 2-((5-(6-(Piperazin-1-yl)pyridin-3-yl)-8-(pyridin-4-yl)imidazo[1,2-a]pyrazin-2-yl)methoxy)quinoline trifluoroacetic acid salt]
IC50 [2]: 15 nM
IC50 [3]: 20 nM

CN1CCN(c2ncc(-c3cnc(N4CCOCC4)c4nc(COc5ccc6ccccc6n5)cn34)cn2)CC1 [Cpd 123, 4-(5-(2-(4-Methylpiperazin-1-yl)pyrimidin-5-yl)-2-((quinolin-2-yloxy)methyl)imidazo[1,2-a]pyrazin-8-yl)morpholine methane sulfonic acid salt]
IC50 [2]: 8 nM
IC50 [3]: 19 nM

c1ccc2nc(OCc3cn4c(-c5ccc(N6CCNCC6)nc5)cnc(N5CCOCC5)c4n3)ncc2c1 [Cpd 124, 4-(5-(6-(Piperazin-1-yl)pyridin-3-yl)-2-((quinazolin-2-yloxy)methyl)imidazo[1,2-a]pyrazin-8-yl)morpholine trifluoroacetic acid salt]
IC50 [2]: 123 nM
IC50 [3]: 115 nM

CN(C)c1ccc(-c2cnc(N3CCOCC3)c3nc(COc4ccc5ccccc5n4)cn23)cn1 [Cpd 127, N,N-Dimethyl-5-(8-morpholino-2-((quinolin-2-yloxy)methyl)imidazo[1,2-a]pyrazin-5-yl)pyridin-2-amine methane sulfonic acid salt]
IC50 [2]: 30 nM
IC50 [3]: 62 nM

CN1CCN(c2ccc(-c3cnc(N4CCOCC4)c4nc(COc5ccc6ccccc6n5)cn34)cn2)CC1 [Cpd 130, 4-(5-(6-(4-Methylpiperazin-1-yl)pyridin-3-yl)-2-((quinolin-2-yloxy)methyl)imidazo[1,2-a]pyrazin-8-yl)morpholine]
IC50 [2]: 16 nM
IC50 [3]: 42 nM

Clc1c(N2CC(c3ccc4ccccc4n3)C2)nc2c(N3CCOCC3)ncc(-c3ccc(N4CCNCC4)nc3)n12 [Cpd 132, 4-(3-Chloro-5-(6-(piperazin-1-yl)pyridin-3-yl)-2-(3-(quinolin-2-yl)azetidin-1-yl)imidazo[1,2-a]pyrazin-8-yl)morpholine trifluoroacetic acid salt]
IC50 [2]: 871 nM
IC50 [3]: 1620 nM

c1ccc2nc(OCc3cn4c(-c5ccc(N6CCNCC6)nc5)cnc(C5CCOCC5)c4n3)ccc2c1 [compound 83, 2-((5-(6-(piperazin-1-yl)pyridin-3-yl)-8-(tetrahydro-2H-pyran-4-yl)imidazo[1,2-a]pyrazin-2-yl)methoxy)quinoline trifluoroacetic acid salt]
IC50 [2]: 269 nM
IC50 [3]: 316 nM
